Measurements published in patent US11993584B2, “Solid forms of an azolopyrimidine compound” (ARCUS BIOSCIENCES, INC., priority 2018, dated 2024).

Key:
[1] = target: A2AR (Homo sapiens, UniProt P29274); details: antagonist; has been reported (U.S. Ser. No. 15/875,106, PCT/US18/14352); cited from earlier work
[2] = target: T1, A2BR (Homo sapiens, UniProt P29275); details: antagonist; has been reported (U.S. Ser. No. 15/875,106, PCT/US18/14352); cited from earlier work
T1 sequence (P29275 1-332): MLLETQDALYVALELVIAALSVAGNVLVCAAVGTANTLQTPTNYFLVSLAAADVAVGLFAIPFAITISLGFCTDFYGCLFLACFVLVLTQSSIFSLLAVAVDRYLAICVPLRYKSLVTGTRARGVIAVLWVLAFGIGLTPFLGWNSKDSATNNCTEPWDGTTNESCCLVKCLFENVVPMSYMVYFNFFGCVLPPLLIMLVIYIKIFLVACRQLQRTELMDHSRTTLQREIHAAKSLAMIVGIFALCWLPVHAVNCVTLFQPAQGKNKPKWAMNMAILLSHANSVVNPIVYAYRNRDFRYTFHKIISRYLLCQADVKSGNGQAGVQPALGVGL

[3] = Solid-state stability of Form I under stress storage, analysis by HPLC and XRPD; type: physicochemical
Method: XRPD analysis was carried out on a PANalytical X'pert pro, scanning the samples between 3 and […] 2θ. The material was gently ground to release any agglomerates and loaded onto a multi-well plate with Kapton or Mylar polymer film to support the sample. The multi-well plate was then placed into the diffractometer and analyzed using Cu K radiation (α1λ=1.54060 Å; α2=1.54443 Å; β=1.39225 Å; α1: α2 ratio=0.5) running in transmission mode (step size 0.0130° 2θ) using 40 kV/40 mA generator settings.
• Instrument: Agilient 1100 • Column: Zorbax Eclipse Plus C18 150 mm×3.0 mm, 3.5 μm particle size • Column Temperature: 35° C. • Autosampler Temperature: Ambient • UV wavelength: 228 nm • Injection Volume: 3 μL • Flow Rate: 1 mL/min • Mobile Phase A: Water (0.1% formic acid in 95:5 water:ACN) • Mobile Phase B: ACN (0.1% formic acid) • Gradient program: […]
Vials containing a quantity of Form I of Compound I were subjected to a temperature of 40° C. at 75% relative humidity (RH) for one week. […] Additionally, vials containing a quantity of the crystalline material were subjected to a temperature of 80° C. in a closed vial for one week.

[4] = Dynamic vapor sorption (DVS) hygroscopicity; type: physicochemical
Method: Approximately 10 mg of sample was placed into a mesh vapor sorption balance pan and loaded into a DVS-1, DVS Intrinsic or DVS Advantage dynamic vapor sorption balance by Surface Measurement Systems. The sample was subjected to a ramping profile from 40-90% relative humidity (RH) at 10% increments, maintaining the sample at each step until a stable weight had been achieved (dm/dt 0.004%, minimum step length 30 min, maximum step length 500 min) at 25° C. After completion of the sorption cycle, the sample was dried using the same procedure to 0% RH and then a second sorption cycle back to 40% RH. Two cycles were performed. The weight change during the sorption/desorption cycles were plotted, allowing for the hygroscopic nature of the sample to be determined. XRPD analysis was then carried out on any solid retained.
A quantity of Compound I Form I was analyzed by dynamic vapor sorption (DVS). The sample was subjected to a ramping profile from 40-90% RH at 10% increments, maintaining the sample at each step until a stable weight had been achieved at 25° C. After completion of the sorption cycle, the sample was dried using the same procedure to 0% RH and then a second sorption cycle back to 40% RH. Two cycles were performed. The weight change during the sorption/desorption cycles were plotted, allowing for the hygroscopic nature of the sample to be determined.

[5] = Competitive 1:1 slurry experiments of the two forms; type: physicochemical; details: 1:1 slurry of Form I and Form III, variety of solvents
[6] = Qualitative dissolution of amorphous Compound I in solvents; type: physicochemical; details: 40 mg sample
Method: Amorphous Compound I was produced by dissolving Compound I in 1,4-dioxane and subsequent lyophilization. The amorphous solid form was confirmed by the lack of indicative peaks by XRPD. To the amorphous Compound I, solvent was added to the 12×40 mg samples to prepare slurries for thermal cycling. The material was readily soluble in many of the 12 solvents and therefore, several of the samples were thermally cycled as saturated solutions.

Sequence of A2AR (P29274 whole entry): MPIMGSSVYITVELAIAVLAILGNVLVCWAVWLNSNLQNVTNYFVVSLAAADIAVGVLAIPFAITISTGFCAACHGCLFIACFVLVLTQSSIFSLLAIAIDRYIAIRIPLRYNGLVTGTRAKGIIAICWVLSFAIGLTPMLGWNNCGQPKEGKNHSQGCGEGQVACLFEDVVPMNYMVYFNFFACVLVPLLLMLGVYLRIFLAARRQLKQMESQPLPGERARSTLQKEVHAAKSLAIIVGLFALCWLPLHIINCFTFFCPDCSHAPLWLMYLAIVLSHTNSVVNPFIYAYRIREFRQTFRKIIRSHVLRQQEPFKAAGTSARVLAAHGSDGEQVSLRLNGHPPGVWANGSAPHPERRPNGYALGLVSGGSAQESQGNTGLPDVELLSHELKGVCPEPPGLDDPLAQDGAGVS

## Cc1c(C#N)cccc1-c1cc(-c2cn(Cc3cccc(C(C)(C)O)n3)nn2)nc(N)n1 [Compound I, 3-[2-amino-6-(1-{[6-(2-hydroxypropan-2-yl)pyridin-2-yl]methyl}-1H-1,2,3-triazol-4-yl)pyrimidin-4-yl]-2-methylbenzonitrile]
[1]
  potency on A2AR: less than 10 nM
[2]
  potency on A2BR: less than 10 nM

## Cc1c(C#N)cccc1-c1cc(-c2cn(Cc3cccc(C(C)(C)O)n3)nn2)nc(N)n1 [Form I of Compound I, 3-[2-amino-6-(1-{[6-(2-hydroxypropan-2-yl)pyridin-2-yl]methyl}-1H-1,2,3-triazol-4-yl)pyrimidin-4-yl]-2-methylbenzonitrile]
[3]; 40° C. at 75% relative humidity (RH) for one week
  stability (decomposition, morphology change) by HPLC and XRPD: stable with no decomposition or morphology change observed
[3]; 80° C. in a closed vial for one week
  stability (decomposition, morphology change) by HPLC and XRPD: stable with no decomposition or change in morphology observed
[4]; DVS, 25° C.
  hygroscopic nature: slightly hygroscopic
[4]; after two sorption/desorption cycles
  XRPD analysis of resultant solid after DVS: no change in morphology observed
[4]; at 90% relative humidity, 25° C., 0-90% RH range, reversible
  maximum absorption of water (DVS): 1.1%
[4]; two cycles, 0-90% RH
  hysteresis upon cycling (DVS): No hysteresis was observed

## Cc1c(C#N)cccc1-c1cc(-c2cn(Cc3cccc(C(C)(C)O)n3)nn2)nc(N)n1 [Form III, 3-[2-amino-6-(1-{[6-(2-hydroxypropan-2-yl)pyridin-2-yl]methyl}-1H-1,2,3-triazol-4-yl)pyrimidin-4-yl]-2-methylbenzonitrile]
[5]
  form conversion in competitive slurry: converted to Form I

## Cc1c(C#N)cccc1-c1cc(-c2cn(Cc3cccc(C(C)(C)O)n3)nn2)nc(N)n1 [amorphous Compound I, 3-[2-amino-6-(1-{[6-(2-hydroxypropan-2-yl)pyridin-2-yl]methyl}-1H-1,2,3-triazol-4-yl)pyrimidin-4-yl]-2-methylbenzonitrile]
[6]; 1,4-Dioxane, 200 μL
  Slurry or Solution: Solution
[6]; 2-Ethoxyethanol, 200 μL
  Slurry or Solution: solution
[6]; 25% Acetone/75% water, 200 μL
  Slurry or Solution: Solution
[6]; 25% MeCN/75% water, 300 μL
  Slurry or Solution: Slurry
[6]; Isopropanol, 400 μL
  Slurry or Solution: Slurry
[6]; Isopropyl acetate, 200 μL
  Slurry or Solution: Solution
[6]; Methanol, 200 μL
  Slurry or Solution: Solution
[6]; THF, 200 μL
  Slurry or Solution: Solution
[6]; Toluene, 700 μL
  Slurry or Solution: Slurry
[6]; acetonitrile, 400 μL
  Slurry or Solution: Slurry
[6]; dichloromethane, 200 μL
  Slurry or Solution: Solution
[6]; water, 700 μL
  Slurry or Solution: slurry
